Assay results: patent US9211340B2, “Means and methods of enhancing delivery to biological systems” (priority 2006, dated 2015)
No end group written: not given here.

What was measured:
[1] = test system: SCF-reporter construct; test: ER-to-Golgi transport of SCF-reporter construct (Golgi-staining of cells); format: cell-based; conditions: 2-hours pretreatment and 1-hour ER-to Golgi transport; FIG. 4
[2] = test system: SCF; test: SCF transport to the cell surface (SCF staining); format: cell-based; conditions: 100 μM peptide, 16 hours; FIG. 5
Protocol: FIG. 5: Arginine-ester peptide delivery and inhibition of SCF transport to the cell surface (16 hours). Left: No peptide; normal SCF membrane staining.
Cos-7 cells were plated overnight on glass coverslips in 10% serum containing DMEM. For the analysis, we suspended the peptide at 1 mM in PBS (phosphate buffered saline) which was diluted to final concentration in full medium. We washed the cells after 15 or 30 minutes and washed once with PBS and fixed with paraformaldehyed (4%) for 10 minutes and took images in PBS.

Q: For “Arginine-ester peptide: 20-mer SCF peptide (SEQ ID NO: 1) with glutamate carboxylates esterified with a guanidinium alkanol (NEEDNEISMLQEKEREFQEV; also: glutamate carboxylates esterified with a guanidinium alkanol (places and alkanol not given here); listed as Homo sapiens)”, which “% of cells exhibiting Golgi-staining of reporter construct (export of SCF-reporter construct)” value [1] is on record?
A: block export of a SCF-reporter construct

Q: What about the “inhibition of SCF transport to the cell surface (SCF staining)” value [2] of the same substance?
A: shift to intracellular SCF staining
